According to PMC8968063, “Key features of inhibitor binding to the human mitochondrial pyruvate carrier hetero-dimer” (Molecular Metabolism, 2022):
Like-named read-outs stand apart in the source and are kept apart here.

Key:
human MPC1L/MPC2 complex = molecular target: T1, human MPC1L/MPC2 complex (Homo sapiens, UniProt O95563+P0DKB6); assay: CPM thermostability shift assay, purified MPC1L/MPC2; assay type: binding; details: for ΔTm at 100 µM: read-out: ∆Tm, CPM assay (thermal shift compared to no-ligand control); for Tm, CPM assay: unliganded 51.3 ± 0.2, mean ± s.d., 3 biological repeats
T1 construct: eight-histidine tag (C, cleaved yes); TEV protease cleavage site (part stays on MPC2 after digestion) (C, cleaved yes); made in house; host or cells: Saccharomyces cerevisiae SHY15 (mpc triple deletion strain), purified from mitochondria
T1 sequence (P0DKB6 2-136): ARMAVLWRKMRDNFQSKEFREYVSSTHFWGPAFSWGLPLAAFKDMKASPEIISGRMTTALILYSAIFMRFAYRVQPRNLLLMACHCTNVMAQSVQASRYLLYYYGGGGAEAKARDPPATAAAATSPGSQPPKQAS
T1 sequence (O95563 2-127): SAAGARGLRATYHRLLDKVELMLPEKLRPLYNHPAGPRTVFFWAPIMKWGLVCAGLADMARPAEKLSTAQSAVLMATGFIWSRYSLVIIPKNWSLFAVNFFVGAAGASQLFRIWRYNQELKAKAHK
Procedure: The assessment of ligand binding was performed via shifts in protein thermostability upon binding using thermal denaturation on a rotary quantitative PCR (qPCR) instrument (Qiagen Rotor-Gene Q 2plex HRM, Venlo, Netherlands), as previously described. In this method, cysteine residues, buried within the protein structure, become solvent-exposed during denaturation in a temperature ramp and then react with 7-diethylamino-3-(4-maleimidophenyl)-4-methylcoumarin (CPM) to form fluorescent-adducts. Briefly, a CPM working solution was prepared by diluting the CPM stock (5 mg/mL in dimethyl sulfoxide) 50-fold into assay buffer (20 mM Tris–HCl, pH 7.4, 150 mM NaCl, 0.1% (w/v) LMNG, 0.1 mg/mL TOCL) and incubated for 10 min at room temperature. In each analysis, performed in duplicates or triplicates, 3 μg of purified MPC was diluted into 45 μL of assay buffer containing the desired concentration of the inhibitor then incubated for 10 min on ice. Next, 5 μL of the CPM working solution were added. Samples were incubated on ice for an additional 10 min then subjected to a temperature ramp of 5.6 °C/min. The fluorescence increase was monitored with the HRM channel of the instrument (excitation at 440–480 nm, emission at 505–515 nm). Unfolding profiles were analysed with the Rotor-Gene Q software 2.3, and the peaks of their derivatives were used to determine the apparent melting temperature.

[1] = molecular target: T2, human MPC1L/MPC2 hetero-dimer (Homo sapiens, UniProt O95563+P0DKB6); assay: Inhibition of [14C]-pyruvate homo-exchange in MPC1L/MPC2 proteoliposomes; assay type: biochemical; details: MPC1L/MPC2 proteoliposomes, 50 μM [14C]-pyruvate homo-exchange, mean ± s.d.; read-out: IC50 of pyruvate transport inhibition
T2 construct: eight-histidine tag (C, cleaved yes); TEV protease cleavage site (part stays on MPC2 after digestion) (C, cleaved yes); made in house; host or cells: Saccharomyces cerevisiae SHY15 (mpc triple deletion strain), purified from mitochondria
T2 sequence (P0DKB6 2-136): T1 sequence (P0DKB6 2-136)
T2 sequence (O95563 2-127): T1 sequence (O95563 2-127)
Procedure: Egg L-α-phosphatidylcholine 99% (w/v) (Avanti Polar Lipids, AL, USA) and TOCL were mixed in a 20:1 (w/w) ratio, dried under a stream of nitrogen and washed once with methanol before being dried again. Lipids were hydrated in 20 mM Tris–HCl, pH 8.0, 50 mM NaCl to a concentration of 12 mg/mL. Unlabeled pyruvate was added as a freshly made concentrated stock at a final concentration of 5 mM for internalisation. Lipids were solubilised with 1.2% (v/v) pentaethylene glycol monodecyl ether (Sigma) and freshly purified protein was added at a lipid-to-protein ratio of 250:1 (w/w). Samples were incubated on ice for 5 min, then liposomes were formed by the step-wise removal of pentaethylene glycol monodecyl ether by five additions at 20 min intervals of 60 mg Bio-Beads SM-2 (Bio-Rad, Watford, UK) with gentle mixing at 4 °C. A final addition of 480 mg Bio-Beads was incubated with the samples overnight. Proteoliposomes were first separated from the Bio-Beads by passage through empty spin columns (Bio-Rad, Watford, UK) and subsequently pelleted at 120,000×g for 60 min. The proteoliposomes were resuspended with a thin needle in 150 μL of their supernatant after the rest of the supernatant was removed.
The time course of pyruvate homo-exchange was measured at room temperature. The transport was initiated by diluting proteoliposomes 200-fold into external buffer, 20 mM MES, pH 6.4, 50 mM NaCl, containing 50 μM [^14C]-pyruvate (500,000 dpm, Perkin Elmer, MA, USA). The reaction (0–30 s) was terminated by rapid dilution into 8 volumes of ice-cold internal buffer (20 mM Tris–HCl, pH 8.0, 50 mM NaCl), followed by rapid filtration through cellulose nitrate 0.45 μm filters (Millipore, Gillingham, UK) and washing with an additional 8 volumes of buffer. The filters were dissolved in Ultima Gold scintillation liquid (Perkin Elmer, MA, USA) and the radioactivity was counted with a Perkin Elmer Tri-Carb 2800 RT liquid scintillation counter. […] The data analysis was performed with non-linear regression fittings using GraphPad Prism 7.0d ([Inhibitor] vs response, variable slope). The specific uptake rates were calculated based on the amount of protein used in reconstitutions, as estimated from bicinchoninic acid assay. The biological repeats represent independent proteoliposome preparations using protein from independent purifications.

[2] = molecular target: T3, recombinant human MPC1L/MPC2 (Homo sapiens, UniProt O95563+P0DKB6); assay: Electrospray mass spectrometry of MPC1L/MPC2 after reaction with inhibitors or sulfhydryl modifiers
T3 construct: MPC1L (2–136); MPC2 (2–137); eight-histidine tag (C, cleaved yes); TEV protease cleavage site (part stays on MPC2 after digestion) (C, cleaved yes); made in house; host or cells: Saccharomyces cerevisiae SHY15 (mpc triple deletion strain), purified from mitochondria
T3 sequence (P0DKB6 2-136 limits assumed): T1 sequence (P0DKB6 2-136)
T3 sequence (O95563 2-127 limits assumed): T1 sequence (O95563 2-127)
Procedure: Different MPC inhibitors (Table1) or sulfhydryl reagents were first incubated with MPC1L/MPC2 in a folded state, then the protein molecular masses were measured by electrospray mass spectrometry. The MPC subunits (10 μg) were resolved by reverse-phase HPLC on a PLRP-S column (1.0 mm i.d. X 75 mm; VARIAN) using a gradient of 2-propanol in a solvent system compatible with the recovery of membrane proteins (Carroll et al., 2009). The eluate (50 μL/min) was introduced into a QTRAP4000 (SCIEX) mass spectrometer operating in positive ion single MS mode. The instrument was scanned from 700 m/z to 2300 m/z after calibration with ions from a mixture of 1.0 μM of myoglobin and 1.5 μM trypsinogen. Molecular masses were obtained by reconstruction of the spectra of multiply charged ions using PeakView (SCIEX).

[3] = MPC1L/MPC2 after reaction with compound

| SMILES | ΔTm at 100 µM (human MPC1L/MPC2 complex; inhibitor 100 μM) [°C] | Tm, CPM assay (human MPC1L/MPC2 complex; inhibitor 100 μM) [°C] | other results |
| --- | --- | --- | --- |
| COc1ccc(/C=C(/C#N)C(=O)O)cc1 [Compound 1] | 9.1 ± 1.2 | 60.4 ± 1.0 |  |
| N#C/C(=C/c1ccc(-c2ccc(Br)cc2)o1)C(=O)O [Compound 3] | 8.4 ± 1.3 | 59.7 ± 1.1 |  |
| N#C/C(=C/c1ccc(-c2ccc(F)cc2)o1)C(=O)O [Compound 4] | 9.1 ± 1.5 | 60.4 ± 1.3 |  |
| N#C/C(=C/c1ccc(-c2ccc(Cl)cc2)o1)C(=O)O [Compound 5] | 9 ± 1.6 | 60.3 ± 1.4 |  |
| N#C/C(=C/c1ccc(-c2cccc(C(F)(F)F)c2)o1)C(=O)O [Compound 6] | 8.5 ± 1.6 | 59.8 ± 1.4 |  |
| N#C/C(=C/c1ccc(-c2ccccc2[N+](=O)[O-])o1)C(=O)O [Compound 7] | 16.5 ± 1.4 | 67.8 ± 1.2 | IC50 [1]: 5.4 ± 1.1 nM; Mass difference (observed vs calculated), MPC1L (2–136) [2, 3]: 0.5 Da; Mass difference (observed vs calculated), MPC1L (5–136) [2, 3]: 0.9 Da; Mass difference (observed vs calculated), MPC2 (2–137) [2, 3]: 1.6 Da; Covalent modification of MPC protomers (molecular mass change) ([2]; folded MPC1L/MPC2 incubated with compound, ESI-MS): no molecular mass differences |
| N#C/C(=C/c1ccc(-c2ccccc2Cl)o1)C(=O)O [Compound 8] | 11 ± 1.9 | 62.3 ± 1.7 |  |
| N#C/C(=C/c1ccc(-c2cccc([N+](=O)[O-])c2)o1)C(=O)O [Compound 9] | 11.7 ± 2 | 63.0 ± 1.8 |  |
| O=C(O)C(=Cc1ccc(-c2ccccc2[N+](=O)[O-])o1)C(=O)O [Compound 10] | -0.1 ± 1.1 | 51.2 ± 0.9 | ∆Tm, CPM assay (thermal shift compared to no-ligand control) (human MPC1L/MPC2 complex; inhibitor 100 μM): No thermal shift |
| O=C1NC(=O)C(=Cc2ccc(-c3ccccc3[N+](=O)[O-])o2)C(=O)N1 [Compound 11] |  | 57.7 ± 2.1 | ΔTm at 100 µM (human MPC1L/MPC2 complex): 6.4 ± 2.3 °C |
| CN1C(=O)NC(=O)/C(=C/c2ccc(-c3ccccc3[N+](=O)[O-])o2)C1=O [Compound 12] | 9.1 ± 0.9 | 60.4 ± 0.7 |  |
